Measured values as given in ChEMBL document CHEMBL2434905, “2-Amino-6-chloro-3,4-dihydroquinazoline: A novel 5-HT3 receptor antagonist with antidepressant character” (Bioorg Med Chem Lett, 2013).

Target: T1, 5-hydroxytryptamine receptor 3A (Homo sapiens, UniProt P46098)
T1 sequence (P46098 whole entry): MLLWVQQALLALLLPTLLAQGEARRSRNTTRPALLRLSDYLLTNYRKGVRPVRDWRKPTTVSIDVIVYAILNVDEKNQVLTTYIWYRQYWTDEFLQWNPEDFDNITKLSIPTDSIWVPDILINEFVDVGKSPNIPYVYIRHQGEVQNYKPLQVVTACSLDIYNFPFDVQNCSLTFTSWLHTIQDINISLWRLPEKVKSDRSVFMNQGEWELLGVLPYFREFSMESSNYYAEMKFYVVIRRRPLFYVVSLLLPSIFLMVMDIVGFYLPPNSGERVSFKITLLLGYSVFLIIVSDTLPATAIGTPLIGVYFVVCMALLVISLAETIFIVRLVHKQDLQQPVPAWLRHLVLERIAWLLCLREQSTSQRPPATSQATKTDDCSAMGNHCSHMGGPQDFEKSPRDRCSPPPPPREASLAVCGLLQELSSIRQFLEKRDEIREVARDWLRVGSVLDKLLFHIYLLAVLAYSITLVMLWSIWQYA
Assay: Displacement of [3H]GR65630 from human 5-HT3A receptor expressed in HEK293 cells by liquid scintillation counting analysis
Assay type: cell-based

A Ki of 2900 nM was found for `CN1CCN2c3ncccc3Cc3ccccc3C2C1` (stereo unspecified) [MIRTAZAPINE] in this work.
